#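 Values below derive from 48-hour exposures of cells grown in 96-well plates, with endpoints linearly interpolated between the two concentrations bracketing the appropriate inhibition level. The concentration for 50% growth inhibition is given as GI50. The concentration for full growth arrest is given as TGI.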
# What was measured:
# Assay in all cases: inhibition of tumour cell growth, NCI panel, 48 h
# PC-3 prostate = tested on: PC-3 prostate
# UACC-257 melanoma = tested on: UACC-257 melanoma
# SW-620 colon = tested on: SW-620 colon
# U251 CNS = tested on: U251 CNS
# KM12 colon = tested on: KM12 colon
# ACHN renal = tested on: ACHN renal
# HCT-116 colon = tested on: HCT-116 colon
# BT-549 breast = tested on: BT-549 breast
# RPMI-8226 leukemia = tested on: RPMI-8226 leukemia
# LOX IMVI melanoma = tested on: LOX IMVI melanoma
# A498 renal = tested on: A498 renal
# COLO 205 colon = tested on: COLO 205 colon
# NCI/ADR-RES ovarian = tested on: NCI/ADR-RES ovarian
# SF-539 CNS = tested on: SF-539 CNS
# 786-0 renal = tested on: 786-0 renal
# MDA-MB-231 breast = tested on: MDA-MB-231 breast
# OVCAR-3 ovarian = tested on: OVCAR-3 ovarian
# T-47D breast = tested on: T-47D breast
# SNB-19 CNS = tested on: SNB-19 CNS
# NCI-H522 lung = tested on: NCI-H522 lung
# SF-268 CNS = tested on: SF-268 CNS
# NCI-H23 lung = tested on: NCI-H23 lung
# SF-295 CNS = tested on: SF-295 CNS
# HOP-62 NSCLC = tested on: HOP-62 NSCLC
# SN12C renal = tested on: SN12C renal
# IGROV1 ovarian = tested on: IGROV1 ovarian
# CCRF-CEM leukemia = tested on: CCRF-CEM leukemia
# SNB-75 CNS = tested on: SNB-75 CNS
# MALME-3M melanoma = tested on: MALME-3M melanoma
# HCC-2998 colon = tested on: HCC-2998 colon
# NCI-H460 lung = tested on: NCI-H460 lung
# MCF7 breast = tested on: MCF7 breast
# OVCAR-4 ovarian = tested on: OVCAR-4 ovarian
# HOP-92 NSCLC = tested on: HOP-92 NSCLC
# M14 melanoma = tested on: M14 melanoma
# HT29 colon = tested on: HT29 colon
# MOLT-4 leukemia = tested on: MOLT-4 leukemia
# CAKI-1 renal = tested on: CAKI-1 renal
# NCI-H226 lung = tested on: NCI-H226 lung
# HCT-15 colon = tested on: HCT-15 colon
# UO-31 renal = tested on: UO-31 renal
# SK-OV-3 ovarian = tested on: SK-OV-3 ovarian
# TK-10 renal = tested on: TK-10 renal
# OVCAR-5 ovarian = tested on: OVCAR-5 ovarian
# SK-MEL-28 melanoma = tested on: SK-MEL-28 melanoma
# DU-145 prostate = tested on: DU-145 prostate
# HL-60(TB) leukemia = tested on: HL-60(TB) leukemia
# SK-MEL-5 melanoma = tested on: SK-MEL-5 melanoma
# UACC-62 melanoma = tested on: UACC-62 melanoma
# MDA-MB-435 = tested on: MDA-MB-435
# SK-MEL-2 melanoma = tested on: SK-MEL-2 melanoma
# RXF 393 renal = tested on: RXF 393 renal
# EKVX NSCLC = tested on: EKVX NSCLC
# A549 NSCLC = tested on: A549 NSCLC
# K-562 leukemia = tested on: K-562 leukemia
# SR leukemia = tested on: SR leukemia
# OVCAR-8 ovarian = tested on: OVCAR-8 ovarian
# HS 578T breast = tested on: HS 578T breast
structure (smiles),measurement,setting,value
COc1cccc(/C=C2\COc3ccc(O)c(O)c3C2=O)c1OC,GI50,PC-3 prostate,2.22 µM
same,TGI,PC-3 prostate,11 µM
same,GI50,UACC-257 melanoma,2.37 µM
same,TGI,UACC-257 melanoma,7.18 µM
same,GI50,SW-620 colon,2.1 µM
same,TGI,SW-620 colon,5.44 µM
same,GI50,U251 CNS,2 µM
same,TGI,U251 CNS,10.5 µM
same,GI50,KM12 colon,1.67 µM
same,TGI,KM12 colon,3.92 µM
same,GI50,ACHN renal,3.27 µM
same,TGI,ACHN renal,12.2 µM
same,GI50,HCT-116 colon,1.9 µM
same,TGI,HCT-116 colon,4.89 µM
same,GI50,BT-549 breast,1.89 µM
same,TGI,BT-549 breast,8.7 µM
same,GI50,RPMI-8226 leukemia,0.547 µM
same,TGI,RPMI-8226 leukemia,8.7 µM
same,GI50,LOX IMVI melanoma,1.53 µM
same,TGI,LOX IMVI melanoma,3.08 µM
same,GI50,A498 renal,4.01 µM
same,TGI,A498 renal,13.9 µM
same,GI50,COLO 205 colon,3.01 µM
same,TGI,COLO 205 colon,8.38 µM
same,GI50,NCI/ADR-RES ovarian,3.48 µM
same,TGI,NCI/ADR-RES ovarian,97.2 µM
same,GI50,SF-539 CNS,2.07 µM
same,TGI,SF-539 CNS,4.77 µM
same,GI50,786-0 renal,1.89 µM
same,TGI,786-0 renal,5.62 µM
same,GI50,MDA-MB-231 breast,3.32 µM
same,TGI,MDA-MB-231 breast,13.4 µM
same,GI50,OVCAR-3 ovarian,1.16 µM
same,TGI,OVCAR-3 ovarian,2.85 µM
same,GI50,T-47D breast,1.66 µM
same,TGI,T-47D breast,22.1 µM
same,GI50,SNB-19 CNS,3.07 µM
same,TGI,SNB-19 CNS,12 µM
same,GI50,NCI-H522 lung,0.19 µM
same,TGI,NCI-H522 lung,0.473 µM
same,GI50,SF-268 CNS,2.12 µM
same,TGI,SF-268 CNS,10.3 µM
same,GI50,NCI-H23 lung,2.9 µM
same,TGI,NCI-H23 lung,11.1 µM
same,GI50,SF-295 CNS,6.07 µM
same,TGI,SF-295 CNS,19.1 µM
same,GI50,HOP-62 NSCLC,8.79 µM
same,TGI,HOP-62 NSCLC,22.8 µM
same,GI50,SN12C renal,2.77 µM
same,TGI,SN12C renal,12.9 µM
same,GI50,IGROV1 ovarian,2.62 µM
same,TGI,IGROV1 ovarian,10.9 µM
same,GI50,CCRF-CEM leukemia,0.61 µM
same,TGI,CCRF-CEM leukemia,> 100 µM
same,GI50,SNB-75 CNS,3.61 µM
same,TGI,SNB-75 CNS,20.9 µM
same,GI50,MALME-3M melanoma,2.09 µM
same,TGI,MALME-3M melanoma,6.11 µM
same,GI50,HCC-2998 colon,1.99 µM
same,TGI,HCC-2998 colon,3.96 µM
same,GI50,NCI-H460 lung,2.34 µM
same,TGI,NCI-H460 lung,7.12 µM
same,GI50,MCF7 breast,1.76 µM
same,TGI,MCF7 breast,14.9 µM
same,GI50,OVCAR-4 ovarian,2.17 µM
same,TGI,OVCAR-4 ovarian,8.47 µM
same,GI50,HOP-92 NSCLC,2.69 µM
same,TGI,HOP-92 NSCLC,8.81 µM
same,GI50,M14 melanoma,2.56 µM
same,TGI,M14 melanoma,9.3 µM
same,GI50,HT29 colon,3.33 µM
same,TGI,HT29 colon,10.1 µM
same,GI50,MOLT-4 leukemia,1.83 µM
same,TGI,MOLT-4 leukemia,> 100 µM
same,GI50,CAKI-1 renal,1.71 µM
same,TGI,CAKI-1 renal,4.69 µM
same,GI50,NCI-H226 lung,10.7 µM
same,TGI,NCI-H226 lung,51.2 µM
same,GI50,HCT-15 colon,1.6 µM
same,TGI,HCT-15 colon,10.5 µM
same,GI50,UO-31 renal,1.1 µM
same,TGI,UO-31 renal,2.4 µM
same,GI50,SK-OV-3 ovarian,7.18 µM
same,TGI,SK-OV-3 ovarian,21 µM
same,GI50,TK-10 renal,2.36 µM
same,TGI,TK-10 renal,8.19 µM
same,GI50,OVCAR-5 ovarian,3.51 µM
same,TGI,OVCAR-5 ovarian,13.6 µM
same,GI50,SK-MEL-28 melanoma,3.53 µM
same,TGI,SK-MEL-28 melanoma,12.9 µM
same,GI50,DU-145 prostate,2.61 µM
same,TGI,DU-145 prostate,10.4 µM
same,GI50,HL-60(TB) leukemia,1.04 µM
same,TGI,HL-60(TB) leukemia,> 100 µM
same,GI50,SK-MEL-5 melanoma,2.05 µM
same,TGI,SK-MEL-5 melanoma,4.3 µM
same,GI50,UACC-62 melanoma,1.8 µM
same,TGI,UACC-62 melanoma,4.53 µM
same,GI50,MDA-MB-435,2.3 µM
same,TGI,MDA-MB-435,7 µM
same,GI50,SK-MEL-2 melanoma,2.35 µM
same,TGI,SK-MEL-2 melanoma,6.34 µM
same,GI50,RXF 393 renal,1.76 µM
same,TGI,RXF 393 renal,3.42 µM
same,GI50,EKVX NSCLC,4.29 µM
same,TGI,EKVX NSCLC,16.9 µM
same,GI50,A549 NSCLC,2.58 µM
same,TGI,A549 NSCLC,14.2 µM
same,GI50,K-562 leukemia,1.47 µM
same,TGI,K-562 leukemia,> 100 µM
same,GI50,SR leukemia,1.51 µM
same,TGI,SR leukemia,> 100 µM
same,GI50,OVCAR-8 ovarian,2.76 µM
same,TGI,OVCAR-8 ovarian,20.9 µM
same,GI50,HS 578T breast,3.99 µM
same,TGI,HS 578T breast,31.5 µM

# From PubChem BioAssay (NCI)
